According to patent US11299487B2, “Compounds and compositions as modulators of TLR signaling” (Neuropore Therapies, Inc., priority 2019, dated 2022):
Read-outs that look alike come from different tables or passages of the source.

What was measured:
Format in all cases: cell-based
human TLR2 [1] = target: T1, human TLR2 (Homo sapiens, UniProt O60603); test: HEK-Blue hTLR2 antagonism assay (SEAP reporter) with agonist Pam3CSK4 (TLR1/2 agonist); details: HEK-Blue hTLR2 cells, ~3×EC50 Pam3CSK4, 18 h, SEAP OD 655 nm, 8-point dilutions
T1 construct: host or cells: HEK-Blue hTLR2 (HEK-293)
T1 sequence (O60603 21-784): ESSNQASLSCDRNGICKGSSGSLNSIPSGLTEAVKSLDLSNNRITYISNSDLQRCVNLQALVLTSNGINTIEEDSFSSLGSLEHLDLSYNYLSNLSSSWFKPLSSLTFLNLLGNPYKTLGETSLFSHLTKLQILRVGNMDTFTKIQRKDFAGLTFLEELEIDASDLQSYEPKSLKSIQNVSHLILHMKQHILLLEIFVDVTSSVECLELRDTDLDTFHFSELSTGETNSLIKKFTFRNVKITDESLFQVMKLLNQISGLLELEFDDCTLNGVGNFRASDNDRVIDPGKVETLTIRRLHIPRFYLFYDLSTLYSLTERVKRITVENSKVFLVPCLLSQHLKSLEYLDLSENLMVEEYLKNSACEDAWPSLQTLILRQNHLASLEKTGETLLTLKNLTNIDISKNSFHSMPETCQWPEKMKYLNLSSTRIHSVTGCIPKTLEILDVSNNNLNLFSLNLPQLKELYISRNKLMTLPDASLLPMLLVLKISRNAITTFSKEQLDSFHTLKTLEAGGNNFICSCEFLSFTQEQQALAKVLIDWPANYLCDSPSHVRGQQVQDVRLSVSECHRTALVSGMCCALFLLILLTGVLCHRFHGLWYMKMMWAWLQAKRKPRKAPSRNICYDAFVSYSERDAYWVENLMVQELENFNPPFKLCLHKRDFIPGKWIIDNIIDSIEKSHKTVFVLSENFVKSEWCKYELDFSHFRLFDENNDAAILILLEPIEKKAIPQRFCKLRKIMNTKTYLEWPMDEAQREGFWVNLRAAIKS

human TLR2 [2] = target: T1, human TLR2; test: HEK-Blue hTLR2 antagonism assay (SEAP reporter) with agonist Pam2CSK4 (TLR2/6 agonist); details: HEK-Blue hTLR2 cells, ~3×EC50 Pam2CSK4, 18 h, SEAP OD 655 nm, 8-point dilutions
human TLR9 = target: T2, human TLR9 (Homo sapiens, UniProt Q9NR96); test: HEK-Blue hTLR9 assay (SEAP reporter) with agonist ODN 2006; details: HEK-Blue hTLR9 cells, ~3×EC50 ODN 2006, 18 h, exact values 8-point dilutions, approximate (~ or <) 4-point dilutions, read-out: ~IC50 (μM) with ODN2006
T2 construct: host or cells: HEK-Blue hTLR9 (HEK-293)
T2 sequence (Q9NR96 26-1032): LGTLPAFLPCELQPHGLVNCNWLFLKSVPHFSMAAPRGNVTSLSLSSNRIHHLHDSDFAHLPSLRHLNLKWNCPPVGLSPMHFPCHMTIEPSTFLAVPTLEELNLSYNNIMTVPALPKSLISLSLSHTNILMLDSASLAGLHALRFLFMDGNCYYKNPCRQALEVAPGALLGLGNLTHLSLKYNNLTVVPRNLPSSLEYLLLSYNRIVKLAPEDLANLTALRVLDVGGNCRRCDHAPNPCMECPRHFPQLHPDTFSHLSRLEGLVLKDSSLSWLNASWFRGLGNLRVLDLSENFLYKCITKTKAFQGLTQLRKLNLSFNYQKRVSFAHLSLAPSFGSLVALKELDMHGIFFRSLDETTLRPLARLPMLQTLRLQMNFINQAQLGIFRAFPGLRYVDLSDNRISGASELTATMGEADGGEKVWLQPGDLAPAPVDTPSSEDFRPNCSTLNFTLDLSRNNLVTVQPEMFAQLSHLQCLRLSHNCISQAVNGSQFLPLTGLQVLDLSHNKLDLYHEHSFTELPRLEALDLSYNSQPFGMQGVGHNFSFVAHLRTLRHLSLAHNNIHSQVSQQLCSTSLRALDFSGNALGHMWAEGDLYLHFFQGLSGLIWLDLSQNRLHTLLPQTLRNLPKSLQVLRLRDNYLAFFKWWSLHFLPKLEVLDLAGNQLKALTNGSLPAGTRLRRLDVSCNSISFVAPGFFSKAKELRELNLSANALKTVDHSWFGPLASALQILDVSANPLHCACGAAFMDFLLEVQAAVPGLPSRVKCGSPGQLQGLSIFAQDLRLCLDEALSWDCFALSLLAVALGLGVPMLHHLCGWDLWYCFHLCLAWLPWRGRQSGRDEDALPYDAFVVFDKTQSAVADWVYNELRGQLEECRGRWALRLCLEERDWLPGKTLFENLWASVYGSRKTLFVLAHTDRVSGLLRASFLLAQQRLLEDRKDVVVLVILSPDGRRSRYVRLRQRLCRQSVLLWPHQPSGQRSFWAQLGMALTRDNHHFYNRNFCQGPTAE
Description: Synthetic ODNs (ODN 2006 (ODN7909), class B CpG oligonucleotide, TLR9 agonist) was obtained from InvivoGen and was dissolved in endotoxin-free water to a concentration 500 μM, vortexed until complete solubilization, and stored in aliquots at −20° C. Prior to addition to cells, an aliquot of the dissolved ligand was vortexed shortly and then was diluted in medium to 50 μM. The EC50 of the agonist for each assay run was determined by using 3-fold dilutions from the starting concentration 10 μM.
Test compounds were solubilized fresh to 10-20 mM stocks in DMSO and sonicated for 5-10 minutes in a water bath sonicator. Serial dilutions were prepared in DMSO, and then diluted in medium. The final concentration of DMSO used in the assay was 1%.
HEK-Blue hTLR9 reporter cells (InvivoGen) are HEK-293 cells stably expressing both the human TLR9 gene and a secreted embryonic alkaline phosphatase (SEAP) reporter construct downstream of NFκB promotor sites. HEK-Blue hTLR9 cells were cultured according to manufacturer's protocol using Dulbecco's Modified Eagle Medium (DMEM; Gibco) containing 1× GlutaMax (Gibco), 10% heat-inactivated Fetal Bovine Serum (Gibco), Pen-Strep (50 U/mL penicillin, 50 μg/mL streptomycin, Gibco), 100 μg/mL Normocin (InvivoGen), and the selective antibiotics, 10 μg/mL Blasticidin (InvivoGen), and 100 μg/mL Zeocin (InvivoGen). Quanti-Blue reagent (InvivoGen) for detection and quantification of secreted alkaline phosphatase was dissolved in 100 mL of endotoxin-free water, warmed to 37° C. for 30 minutes and then filtered using a 0.2 μm membrane.
On day 1, 50 μL of each test compound dilution in duplicates or a vehicle control was added to each well of a 96-well plate followed by addition of 150 μL of HEK-Blue hTLR9 cell suspension (1×10^5 cells/well) and incubated at 37° C./5% CO2 for 2 h. Next, 50 μL of an approximate 3×EC50 concentration of TLR9 agonist, ODN 2006, was added to the wells containing test compounds or the vehicle control. The plates were then incubated at 37° C./5% CO2 for 18 h. For each assay run, vehicle-treated HEK-Blue hTLR9 cells were treated with serial dilutions of agonist to determine EC50 values for the respective run.
On day 2, secreted alkaline phosphatase (SEAP) activity was detected in cell culture supernatants. In brief, 30 μL was collected from each well and transferred to a 96-well plate. Next, 200 μL of Quanti-Blue detection reagent was added to each well. Plates were incubated at 37° C. for 60 min. and SEAP activity was assessed by spectrophotometer OD reading at 655 nm. Table A and Table B show the activities of the compounds tested in HEK-Blue hTLR9 cells against ODN 2006. The activities of the compounds against ODN 2006 are presented as IC50 values which were defined as concentrations of the compounds where percent inhibition of the signal induced by agonist is equal to 50. Exact IC50 values were calculated based on 8-point dilutions for each compound. Approximate IC50 values (˜ or <) were calculated based on 4-point dilutions for each compound.

O=Cc1cc(-c2nc(-c3ccccc3)cs2)cc(F)c1O [Compound A93, 3-fluoro-2-hydroxy-5-(4-phenylthiazol-2-yl)benzaldehyde]
IC50 (human TLR2 [1]; Table A): 2.1 µM
IC50 (human TLR2 [2]; Table A): 4.8 µM
IC50 (human TLR9; Table A): < 1.2 µM

Cc1cc(-c2cnn(-c3ccccc3)c2)cc(O)c1F [Compound A14, 2-fluoro-3-methyl-5-(1-phenyl-1H-pyrazol-4-yl)phenol]
IC50 (human TLR2 [1]; Table A): 42.6 µM
IC50 (human TLR2 [2]; Table A): 42.2 µM
IC50 (human TLR9; Table A): > 33 µM

O=Cc1cc(-c2cnc(-c3ccccc3)s2)cc(F)c1O [Compound A91, 3-fluoro-2-hydroxy-5-(2-phenylthiazol-5-yl)benzaldehyde]
IC50 (human TLR2 [1]; Table A): 2.1 µM
IC50 (human TLR2 [2]; Table A): 3.8 µM
IC50 (human TLR9; Table A): < 1.2 µM

O=Cc1cc(-c2ccn(-c3ccccc3)n2)cc(F)c1O [Compound A26, 3-fluoro-2-hydroxy-5-(1-phenyl-1H-pyrazol-3-yl)benzaldehyde]
IC50 (human TLR2 [1]; Table A): 2.7 µM
IC50 (human TLR2 [2]; Table A): 2.9 µM
IC50 (human TLR9; Table A): ~3 µM

COc1cc(-c2cnn(-c3ccccc3)c2)cc(C=O)c1O [Compound A1, 2-hydroxy-3-methoxy-5-(1-phenyl-1H-pyrazol-4-yl)benzaldehyde]
IC50 (human TLR2 [1]; Table A): 0.9 µM
IC50 (human TLR2 [2]; Table A): 2.2 µM
IC50 (human TLR9; Table A): ~2 µM

O=Cc1cc(-c2cc(-c3ccc(N4CCCC4)cc3)cs2)cc(F)c1O [Compound A51, 3-fluoro-2-hydroxy-5-(4-(4-(pyrrolidin-1-yl)phenyl)thiophen-2-yl)benzaldehyde]
IC50 (human TLR2 [1]; Table A): 0.7 µM
IC50 (human TLR2 [2]; Table A): 1.7 µM
IC50 (human TLR9; Table A): < 1.2 µM

O=Cc1cc(C(=O)Nc2ccc(N3CCC(F)(F)CC3)cc2)cc(F)c1O [Compound B68, N-(4-(4,4-difluoropiperidin-1-yl)phenyl)-3-fluoro-5-formyl-4-hydroxybenzamide]
IC50 (human TLR2 [1]; Table B): 1 µM
IC50 (human TLR2 [2]; Table B): 3.5 µM
IC50 (human TLR9; Table B): < 1.2 µM

O=Cc1cc(-c2cn(-c3ccc(N4CCCC4)cc3)cn2)cc(F)c1O [Compound A47, 3-fluoro-2-hydroxy-5-(1-(4-(pyrrolidin-1-yl)phenyl)-1H-imidazol-4-yl)benzaldehyde]
IC50 (human TLR2 [1]; Table A): 1.3 µM
IC50 (human TLR2 [2]; Table A): 2.3 µM
IC50 (human TLR9; Table A): < 1.2 µM

O=Cc1cc(-c2nc(-c3ccc(N4CCCC4)cc3)ns2)cc(F)c1O [Compound A62, 3-fluoro-2-hydroxy-5-(3-(4-(pyrrolidin-1-yl)phenyl)-1,2,4-thiadiazol-5-yl)benzaldehyde]
IC50 (human TLR2 [1]; Table A): 0.4 µM
IC50 (human TLR2 [2]; Table A): 0.7 µM
IC50 (human TLR9; Table A): 0.2 µM

Cc1cc(-c2cnn(-c3ccccc3)c2)cc(C#N)c1O [Compound A12, 2-hydroxy-3-methyl-5-(1-phenyl-1H-pyrazol-4-yl)benzonitrile]
IC50 (human TLR2 [1]; Table A): > 100 µM
IC50 (human TLR2 [2]; Table A): > 100 µM
IC50 (human TLR9; Table A): > 33 µM

O=Cc1cc(C(=O)Nc2ccccc2)cc(F)c1O [Compound B11, 3-fluoro-5-formyl-4-hydroxy-N-phenylbenzamide]
IC50 (human TLR2 [1]; Table B): 10.6 µM
IC50 (human TLR2 [2]; Table B): 12 µM
IC50 (human TLR9; Table B): < 1.2 µM

O=Cc1cc(C#Cc2ccc(N3CCCC3)cc2)cc(F)c1O [Compound B1, 3-fluoro-2-hydroxy-5-((4-(pyrrolidin-1-yl)phenyl)ethynyl)benzaldehyde]
IC50 (human TLR2 [1]; Table B): 0.7 µM
IC50 (human TLR2 [2]; Table B): 1.1 µM
IC50 (human TLR9; Table B): < 1.2 µM

O=Cc1cc(C(=O)Nc2ccc(N3C[C@H]4CCC[C@H]4C3)cc2)cc(F)c1O [Compound B76, 3-fluoro-5-formyl-N-(4-((3aR,6aS)-hexahydrocyclopenta[c]pyrrol-2(1H)-yl)phenyl)-4-hydroxybenzamide]
IC50 (human TLR2 [1]; Table B): 0.6 µM
IC50 (human TLR2 [2]; Table B): 1.2 µM
IC50 (human TLR9; Table B): < 1.2 µM

O=Cc1cc(-c2cnn(-c3ccc(N4CCCC4)cc3)c2)cc(F)c1O [Compound A19, 3-fluoro-2-hydroxy-5-(1-(4-(pyrrolidin-1-yl)phenyl)-1H-pyrazol-4-yl)benzaldehyde]
IC50 (human TLR2 [1]; Table A): 0.5 µM
IC50 (human TLR2 [2]; Table A): 0.5 µM
IC50 (human TLR9; Table A): < 1.2 µM

Oc1cc(-c2cnn(-c3ccccc3)c2)cc(F)c1F [Compound A13, 2,3-difluoro-5-(1-phenyl-1H-pyrazol-4-yl)phenol]
IC50 (human TLR2 [1]; Table A): 39.7 µM
IC50 (human TLR2 [2]; Table A): 45.7 µM
IC50 (human TLR9; Table A): > 33 µM

O=Cc1cc(-c2nnc(-c3ccccc3)s2)cc(F)c1O [Compound A94, 3-fluoro-2-hydroxy-5-(5-phenyl-1,3,4-thiadiazol-2-yl)benzaldehyde]
IC50 (human TLR2 [1]; Table A): 9.2 µM
IC50 (human TLR2 [2]; Table A): 14.8 µM
IC50 (human TLR9; Table A): < 1.2 µM

O=Cc1cc(-c2cn(-c3ccc(N4CCCC4)cc3)nn2)cc(F)c1O [Compound A43, 3-fluoro-2-hydroxy-5-(1-(4-(pyrrolidin-1-yl)phenyl)-1H-1,2,3-triazol-4-yl)benzaldehyde]
IC50 (human TLR2 [1]; Table A): 1.1 µM
IC50 (human TLR2 [2]; Table A): 1.1 µM
IC50 (human TLR9; Table A): < 1.2 µM

O=Cc1cc(-c2cnc(-c3ccc(N4CCCC4)cc3)s2)cc(F)c1O [Compound A55, 3-fluoro-2-hydroxy-5-(2-(4-(pyrrolidin-1-yl)phenyl)thiazol-5-yl)benzaldehyde]
IC50 (human TLR2 [1]; Table A): 0.4 µM
IC50 (human TLR2 [2]; Table A): 0.6 µM
IC50 (human TLR9; Table A): 0.2 µM

Oc1c(F)cc(-c2cnn(-c3ccccc3)c2)cc1Cl [Compound A15, 2-chloro-6-fluoro-4-(1-phenyl-1H-pyrazol-4-yl)phenol]
IC50 (human TLR2 [1]; Table A): > 100 µM
IC50 (human TLR2 [2]; Table A): > 100 µM
IC50 (human TLR9; Table A): > 33 µM

O=Cc1cc(C(=O)Nc2cccc(N3CCCC3)c2)cc(F)c1O [Compound B71, 3-fluoro-5-formyl-4-hydroxy-N-(3-(pyrrolidin-1-yl)phenyl)benzamide]
IC50 (human TLR2 [1]; Table B): 1.7 µM
IC50 (human TLR2 [2]; Table B): 2.6 µM
IC50 (human TLR9; Table B): ~2.5 µM

O=Cc1cc(NC(=O)Nc2ccc(N3CCCC3)cc2)cc(F)c1O [Compound B65, 1-(3-fluoro-5-formyl-4-hydroxyphenyl)-3-(4-(pyrrolidin-1-yl)phenyl)urea]
IC50 (human TLR2 [1]; Table B): 3.7 µM
IC50 (human TLR2 [2]; Table B): 8.7 µM
IC50 (human TLR9; Table B): < 1.2 µM
